Measured values reported in US20230075856A1, “CYCLIC SULFAMIDE COMPOUNDS FOR TREATMENT OF HBV” (Assembly Biosciences, Inc., priority 2018, published 2023).
Read-outs that look alike come from different tables or passages of the source.

System: HBV viral load production from HepAD38 cells
Assay: Viral production from HepAD38 cells: viral load in supernatant by qPCR of the HBV core sequence
Type: cell-based
Details: 5 days incubation, qPCR of supernatant HBV DNA vs DMSO control, read-out: viral load lowering EC50 (Activity)
Procedure: Assay Measuring Activity of Test Compounds on Viral Production from HepAD38 Cells
HepAD38 cells grown in a T-150 flask (Corning, cat #: 430825) with Growth Medium (DMEM/F12 […] (Hyclone, cat #: SH30023.02), 1× Pen/Strep (Invitrogen, cat #: 15140-122), 10% FBS (Tissue Culture Biologics, cat #: 101), […] G418 (Alfa Aesar, cat #: J62671), 1 μg/mL Tetracycline (Teknova, cat #: T3320)) were detached with 0.25% trypsin-EDTA (Invitrogen, cat #: 25200-056). Tetracycline-free treatment medium (15 mL DMEM/F12 (1:1) 1× Pen/step, with 2% FBS, Tet-system approved (Clontech, cat #: 631106) were then added to mix, transferred into a 50 ml conical tube (Falcon, cat #: 21008-918,) and spun at 1300 rpm for 5 min. Pelleted cells were then re-suspended/washed with 50 mL of 1×DPBS (Invitrogen, cat #: 14190-136) 2 times and 50 mL treatment medium twice. HepAD38 cells were then re-suspended with 10 mL of treatment medium, syringed and counted. Wells of 96-well clear bottom TC plate (Corning, cat #: 3904,) were seeded at 50,000 cells/well in 180 μL of treatment medium, and 20 μL of either 10% DMSO (Sigma, cat #: D4540) as controls or a 10× solution of test compounds in 10% DMSO in treatment media was added for a final compound concentration starting at 10 μM, and plates were incubated in 5% CO2 incubator at 37° C. for 5 days.
Subsequently viral load production was assayed by quantitative PCR (qPCR) of the HBV core sequence. PCR reaction mixture containing forward primers HBV-f 5′-CTGTGCCTTGGGTGGCTIT-3′ (IDT DNA), Reverse primers HBV-r 5′-[…]-3′ (IDT DNA), Fluorescent TaqMan™ Probes HBV-probe 5′-FAM/AGCTCCAAA/ZEN/[…]/3IABkFQ-3′ (IDT DNA), 10 μL/well of PerfeCTa® qPCR ToughMix® (Quanta Biosciences, Cat #: 95114-05K), and 6 μL/well of DEPC water (Alfa Aesar, cat #: J62087) was prepared. Four μL of supernatant was added to 16 μL of the reaction mixture in a qPCR plate (Applied Biosytems, Cat #: 4309849), sealed with a film (Applied Biosystems, Cat #: 4311971), centrifuged for a few seconds, and subsequently run on an Applied Biosystems VIIA7. The PCR mixture was incubated at 45° C. for 5 min, then 95° C. for 10 min, followed by 40 cycles of 10 seconds at 95° C. and 20 seconds at 60° C. Viral load was quantified against known HBV DNA standards by using ViiA™ 7 Software. Viral load in the supernatant from wells with treated cells were compared against viral load in supernatant from DMSO control wells (≥3 per plate). Cell viability assay was performed with CellTiter-Glo Luminescent Cell Viability Assay (Promega, cat #: G7573) with modification. Mixed appropriate amount of CellTiter-Glo (CTG) 1×DPBS in a 1:1 ratio, added 100 uL of the mixture to each well followed completely removal of all supernatant in each well without touching cell surface. Incubated the plate at room temperature for 10 min on an orbital shaker, and then read the plate with a plate reader (TECAN M1000 or Envision). EC50 or CC50 values were calculated through curve-fitting of the four-parameter nonlinear-logistic-regression model (GraphPad Prism or Dotmatics). CC50 values were all >10 μM.

[1] = Hepatitis B virus, HePAD38, 120 h

| Structure (SMILES) | EC50 [1] | EC50 |
| --- | --- | --- |
| Cc1cccnc1N1CCC(NC(=O)C2CC(C(=O)Nc3ccc(F)c(Cl)c3)N(C)S(=O)(=O)N2)CC1 (stereo not drawn) [Compound 1074] | < 50 nM | – |
| CN(C)CCCCc1cnn(-c2ncc(CNC(=O)C3CC(C(=O)Nc4ccc(F)c(Cl)c4)N(C)S(=O)(=O)N3)s2)c1 (stereo not drawn) [Compound 1197] | 100 to 10000 nM | – |
| CN1C(C(=O)Nc2ccc(F)c(Cl)c2)CC(C(=O)NC(c2ccccc2)c2cnc(-c3ccccc3)s2)NS1(=O)=O (stereo not drawn) [Compound 1067] | < 50 nM | – |
| Cc1cnc(CNC(=O)C2CC(C(=O)Nc3ccc(F)c(C#N)c3)N(C)S(=O)(=O)N2)s1 (stereo not drawn) [Compound 829] | 100 to 10000 nM | – |
| COc1ccc(-c2cnc(CNC(=O)C3CC(C(=O)Nc4ccc(F)c(Cl)c4)N(C)S(=O)(=O)N3)s2)cc1 (single isomer, unassigned) [Compound 932-ISOMER-A, N3-(3-chloro-4-fluoro-phenyl)-N5-[[5-(4-methoxyphenyl)thiazol-2-yl]methyl]-2-methyl-1,1-dioxo-1,2,6-thiadiazinane-3,5-dicarboxamide] | 100 to 10000 nM | – |
| COC(=O)N1CCC(NC(=O)C2CC(C(=O)Nc3ccc(F)c(Cl)c3)N(C)S(=O)(=O)N2)CC1 (single isomer, unassigned) [Compound 477-ISOMER-A, methyl 4-[[5-[(3-chloro-4-fluoro-phenyl)carbamoyl]-6-methyl-1,1-dioxo-1,2,6-thiadiazinane-3-carbonyl]amino]piperidine-1-carboxylate] | < 50 nM | – |
| CN1C(C(=O)Nc2ccc(F)c(Cl)c2)CC(C(=O)NCc2cnc(-c3ccc(OCCCN4CCCC4)cc3)s2)NS1(=O)=O (stereo not drawn) [Compound 928] | 50 to 100 nM | – |
| CN1C(C(=O)Nc2ccc(F)c(Cl)c2)CC(C(=O)NCc2nn(-c3ccccc3F)c3ccccc23)NS1(=O)=O (single isomer, unassigned) [1086-ISOMER-B, N3-(3-chloro-4-fluoro-phenyl)-N5-[[1-(2-fluorophenyl)indazol-3-yl]methyl]-2-methyl-1,1-dioxo-1,2,6-thiadiazinane-3,5-dicarboxamide] | – | 100 to 10000 nM |
| Cc1nc(-c2ccccc2)sc1CNC(=O)C1CC(C(=O)Nc2ccc(F)c(C#N)c2)N(C)S(=O)(=O)N1 (single isomer, unassigned) [1136-ISOMER-B, N3-(3-cyano-4-fluoro-phenyl)-2-methyl-N5-[(4-methyl-2-phenyl-thiazol-5-yl)methyl]-1,1-dioxo-1,2,6-thiadiazinane-3,5-dicarboxamide] | – | 100 to 10000 nM |
| CN1C(C(=O)Nc2ccc(F)c(Cl)c2)CC(C(=O)NCc2cc(-c3ccccc3Cl)no2)NS1(=O)=O (single isomer, unassigned; isomer-b) [1025-ISOMER-B, N3-(3-chloro-4-fluoro-phenyl)-N5-[[3-(2-chlorophenyl)isoxazol-5-yl]methyl]-2-methyl-1,1-dioxo-1,2,6-thiadicarboxamidediazinane-3,5-] | – | 100 to 10000 nM |
| CN1C(C(=O)Nc2ccc(F)c(Cl)c2)CC(C(=O)NC2CCCc3nc(-c4ccc(OCCN5CCCCC5)cc4)sc32)NS1(=O)=O (single isomer, unassigned) [Compound 948-ISOMER-A] | < 50 nM | – |
| CN(C)CC(C)(C)COc1ccc(-c2ncc(CNC(=O)C3CC(C(=O)Nc4ccc(F)c(Cl)c4)N(C)S(=O)(=O)N3)s2)cc1 (single isomer, unassigned) [Compound 943-ISOMER-A, N3-(3-chloro-4-fluoro-phenyl)-N5-[[2-[4-[3-(dimethylamino)-2,2-dimethyl-propoxy]phenyl]thiazol-5-yl]methyl]-2-methyl-1,1-dioxo-1,2,6-thiadiazinane-3,5-dicarboxamide] | < 50 nM | – |
| CN1C(C(=O)Nc2ccc(F)c(Cl)c2)CC(C(=O)NCc2cc(-c3ccc(F)cc3)nn2C)NS1(=O)=O (single isomer, unassigned) [1143-ISOMER-A, N3-(3-chloro-4-fluoro-phenyl)-N5-[[5-(4-fluorophenyl)-2-methyl-pyrazol-3-yl]methyl]-2-methyl-1,1-dioxo-1,2,6-thiadiazinane-3,5-dicarboxamide] | 100 to 10000 nM | – |
| Cc1ccccc1CNC(=O)C1CC(C(=O)Nc2ccc(F)c(Cl)c2)N(C)S(=O)(=O)N1 (stereo not drawn) [Compound 817] | < 50 nM | – |
| Cc1noc(CNC(=O)C2CC(C(=O)Nc3ccc(F)c(Cl)c3)N(C)S(=O)(=O)N2)n1 (stereo not drawn) [Compound 685] | 100 to 10000 nM | – |
| CN1C(C(=O)Nc2ccc(F)c(Cl)c2)CC(C(=O)NC2CCN(c3cc(Cl)ccn3)CC2)NS1(=O)=O (single isomer, unassigned) [Compound 974-ISOMER-B, N3-(3-chloro-4-fluoro-phenyl)-N5-[1-(4-chloro-2-pyridyl)-4-piperidyl]-2-methyl-1,1-dioxo-1,2,6-thiadiazinane-3,5-dicarboxamide] | – | 50 to 100 nM |
| CN1C(C(=O)Nc2ccc(F)c(Cl)c2)CC(C(=O)NC2CCC(F)(F)CC2)NS1(=O)=O (stereo not drawn) [Compound 859] | 100 to 10000 nM | – |
| Cc1cccc(CNC(=O)C2CC(C(=O)Nc3ccc(F)c(Cl)c3)N(C)S(=O)(=O)N2)n1 (stereo not drawn) [Compound 716] | < 50 nM | – |
| CC(NC(=O)C1CC(C(=O)Nc2ccc(F)c(Cl)c2)N(C)S(=O)(=O)N1)c1cnc(Cl)s1 (stereo not drawn) [Compound 1030] | < 50 nM | – |
| C[C@@H](NC(=O)C1CC(C(=O)Nc2ccc(F)c(C#N)c2)N(C)S(=O)(=O)N1)c1ccccc1 (stereo partly drawn) [Compound 834] | 100 to 10000 nM | – |
| CN1C(C(=O)Nc2ccc(F)c(C#N)c2)CC(C(=O)NCc2ccc(Cl)cc2)NS1(=O)=O (stereo not drawn) [Compound 836] | 50 to 100 nM | – |
| CN1C(C(=O)Nc2ccc(F)c(Cl)c2)CC(C(=O)N[C@@H]2CCN(c3ccnc(Cl)c3)C2)NS1(=O)=O (single isomer, unassigned) [1055-R-ISOMER-B] | – | < 50 nM |
| Cc1cnc(CNC(=O)C2CC(C(=O)Nc3ccc(F)c(Cl)c3)N(C)S(=O)(=O)N2)s1 (single isomer, unassigned) [Compound 687-ISOMER-B, N3-(3-chloro-4-fluoro-phenyl)-2-methyl-N5-[(5-methylthiazol-2-yl)methyl]-1,1-dioxo-1,2,6-thiadiazinane-3,5-dicarboxamide] | – | < 50 nM |
| Cc1nc(-c2ccc(F)cc2)sc1CNC(=O)C1CC(C(=O)Nc2ccc(F)c(Cl)c2)N(C)S(=O)(=O)N1 (stereo not drawn) [Compound 1056] | < 50 nM | – |
| Cc1csc(CNC(=O)C2CC(C(=O)Nc3ccc(F)c(Cl)c3)N(C)S(=O)(=O)N2)n1 (stereo not drawn) [Compound 686] | 50 to 100 nM | – |
| CN1C(C(=O)Nc2ccc(F)c(Cl)c2)CC(C(=O)NC2CCN(c3ncccn3)CC2)NS1(=O)=O (stereo not drawn) [Compound 855] | < 50 nM | – |
| CN1C(C(=O)Nc2ccc(F)c(Cl)c2)CC(C(=O)NCc2cnc(-c3ccccc3Cl)s2)NS1(=O)=O (single isomer, unassigned) [Compound 912-ISOMER-A, N3-(3-chloro-4-fluoro-phenyl)-N5-[[2-(2-chlorophenyl)thiazol-5-yl]methyl]-2-methyl-1,1-dioxo-1,2,6-thiadiazinane-3,5-dicarboxamide] | 100 to 10000 nM | – |
| CCn1ccc(CNC(=O)C2CC(C(=O)Nc3ccc(F)c(Cl)c3)N(C)S(=O)(=O)N2)n1 (stereo not drawn) [Compound 745] | 50 to 100 nM | – |
| CN1C(C(=O)Nc2ccc(F)c(Cl)c2)CC(C(=O)NC2CCN(C(=O)OC(C)(C)C)CC2)NS1(=O)=O (single isomer, unassigned) [Compound 767-ISOMER-B, tert-butyl 4-[[5-[(3-chloro-4-fluoro-phenyl)carbamoyl]-6-methyl-1,1-dioxo-1,2,6-thiadiazinane-3-carbonyl]amino]piperidine-1-carboxylate] | – | 100 to 10000 nM |
| CN1C(C(=O)Nc2ccc(F)c(Cl)c2)CC(C(=O)NC2CCN(c3cc(Cl)ccn3)CC2)NS1(=O)=O (stereo not drawn) [Compound 974] | < 50 nM | – |
